# Assays:
# [1] = tested on: MGG4; assay: Sphere-forming ability (anchorage-independent cell proliferation), MGG4; type: cell-based, human; settings: MGG4 (high FTSJ1 expression), 1 week, 0-5000 nM; FIG. 4B
# Protocol: To verify whether the expression analysis of these gene clusters contributes to predicting the anti-cancer effect by the FTSJ1 inhibitors, the FTSJ1 gene was actually used as an example to analyze the anti-cancer effect of the FTSJ1 inhibitor PVZF2001 on human malignant brain tumor cell lines. Human malignant brain tumor cell lines MGG4, MGG8, MGG18, MGG23 were treated with stem cell medium (Neurobasal, B-27, N-2, 20 ng/mL EGF, 20 ng/mL bFGF) containing different concentrations (0 nm, 200 nM, 500 nM, 1000 NM, 2000 NM, 5000 nM) of PVZF2001 for 1 week, and anchorage-independent cell proliferation was evaluated based on sphere-forming ability.
# [2] = target: T1, FTSJ1 (Homo sapiens, UniProt Q9UET6); assay: Screening test: FLAG-FTSJ1 transmethylation of total RNA, SAM to SAH conversion measured with MTase-Glo luminescence; type: biochemical; settings: 10 ng/reaction FLAG-FTSJ1, 1,000 ng/reaction total RNA, different concentrations; FIG. 3B
# T1 construct: made in house; host or cells: HEK293 cells stably expressing FLAG-tagged FTSJ1
# T1 sequence (Q9UET6 1-329): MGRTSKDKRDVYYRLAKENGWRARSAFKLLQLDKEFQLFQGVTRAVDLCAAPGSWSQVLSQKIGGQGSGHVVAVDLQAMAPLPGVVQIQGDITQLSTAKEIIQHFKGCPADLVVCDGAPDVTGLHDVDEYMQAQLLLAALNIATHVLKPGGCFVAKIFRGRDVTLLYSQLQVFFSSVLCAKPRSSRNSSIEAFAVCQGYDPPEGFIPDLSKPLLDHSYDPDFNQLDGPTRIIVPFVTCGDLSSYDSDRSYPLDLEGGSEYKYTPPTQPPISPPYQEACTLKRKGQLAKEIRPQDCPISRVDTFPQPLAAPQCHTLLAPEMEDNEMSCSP
# Protocol: HEK293 human embryonic kidney cells that constantly express FLAG-tagged FTSJ1 were produced, and from its cell lysate, FLAG-FTSJ1 was separated by adsorption using an anti-FLAG M2 antibody affinity gel (Sigma-Aldrich Co. LLC, catalog number: A2220-10ML), and eluted with FLAG peptide (Sigma-Aldrich Co. LLC, catalog number: F3290-25MG). After measuring the protein concentration in the eluate, serial dilutions were performed within the range of 0 to 20 ng/reaction to obtain enzyme dilutions of 12 different concentrations. Further, the total RNA was extracted from HEK293-FTSJ1-KO cells, in which FTSJ1 was knocked out, using TRIzol Reagent (Thermo Fisher Scientific Inc., catalog number: 15596018). […] The conversion reaction from SAM (s-adenosyl methionine) to SAH (s-adenosyl homocysteine), which occurred when FLAG-FTSJ1 in each dilution methylated 1,000 ng/reaction of the total RNA, was measured as a luciferase luminescence value using MTase-Glo Reagent in the assay kit. Taking the luminescence value at the time when FLAG-FTSJ1 was 0 ng as a background value, a graph was drawn using the numerical values obtained by subtracting the background value from the luminescence value at each dilution step. […]
smiles,measurement,setting,value
CC(C)c1cc(C(C)C)c(S(=O)(=O)CC2CC(C)(C)CC(C)(C)C2)c(C(C)C)c1 [PVZF2001],anchorage-independent cell proliferation (sphere-forming ability),[1],showed proliferation inhibition at low concentrations
same,inhibitory effect of transmethylation by FTSJ1 (luminescence value),[2],a decrease in the luminescence value was observed in a concentration-dependent manner
